# Legend:
# Assay in all cases: relative viability (nuclei count vs DMSO), 5 days (fraction); higher = more cells survive
# MLN4924 + Navitoclax = compound: NS(=O)(=O)OC[C@@H]1C[C@@H](n2ccc3c(N[C@H]4CCc5ccccc54)ncnc32)C[C@@H]1O [MLN4924] + CC1(C)CCC(c2ccc(Cl)cc2)=C(CN2CCN(c3ccc(C(=O)NS(=O)(=O)c4ccc(N[C@H](CCN5CCOCC5)CSc5ccccc5)c(S(=O)(=O)C(F)(F)F)c4)cc3)CC2)C1 [Navitoclax] (partner 0.5 µM)
# Procedure, shortened: (§1)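 Five library-drug doses in √10 steps were combined with a fixed anchor-drug dose, or a single drug was given alone, by pin tool to lung cancer cell lines in 1536-well plates the day after seeding. Nuclei were stained and counted after 5 days. Relative viability is the nuclei count in treated wells over that in vehicle wells, taken as the median of duplicate plates.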
# Carboplatin + Bortezomib = compound: C1CC(C1)(C(=O)O)C(=O)O.[NH2-].[NH2-].[Pt+2] [Carboplatin] + CC(C)C[C@H](NC(=O)[C@H](Cc1ccccc1)NC(=O)c1cnccn1)B(O)O [Bortezomib] (partner 0.002 µM)
# Procedure, shortened: as §1
# GSK126 + Lapatinib = compound: CC[C@H](C)N1C=C(C2=C(C=C(C=C21)C3=CN=C(C=C3)N4CCNCC4)C(=O)NCC5=C(C=C(NC5=O)C)C)C [GSK126] + CS(=O)(=O)CCNCc1ccc(-c2ccc3ncnc(Nc4ccc(OCc5cccc(F)c5)c(Cl)c4)c3c2)o1 [Lapatinib] (partner 2 µM)
# Procedure, shortened: as §1
# GSK126 + Pemetrexed = compound: CC[C@H](C)N1C=C(C2=C(C=C(C=C21)C3=CN=C(C=C3)N4CCNCC4)C(=O)NCC5=C(C=C(NC5=O)C)C)C [GSK126] + Nc1nc2[nH]cc(CCc3ccc(C(=O)N[C@@H](CCC(=O)O)C(=O)O)cc3)c2c(=O)[nH]1 [Pemetrexed] (partner 0.2 µM)
# Procedure, shortened: as §1
cell line,measurement,setting,value
UMC-11,relative viability,MLN4924 + Navitoclax; first compound 0.04 µM,0.198
same,relative viability,MLN4924 + Navitoclax; first compound 0.1265 µM,0.142
same,relative viability,MLN4924 + Navitoclax; first compound 0.4 µM,0.167
same,relative viability,MLN4924 + Navitoclax; first compound 1.265 µM,0.1
same,relative viability,MLN4924 + Navitoclax; first compound 4 µM,0.112
same,relative viability,Carboplatin + Bortezomib; first compound 0.08 µM,0.941
same,relative viability,Carboplatin + Bortezomib; first compound 0.253 µM,0.904
same,relative viability,Carboplatin + Bortezomib; first compound 0.8 µM,0.675
same,relative viability,Carboplatin + Bortezomib; first compound 2.53 µM,0.622
same,relative viability,Carboplatin + Bortezomib; first compound 8 µM,0.382
same,relative viability,GSK126 + Lapatinib; first compound 0.08 µM,1.05
same,relative viability,GSK126 + Lapatinib; first compound 0.253 µM,0.998
same,relative viability,GSK126 + Lapatinib; first compound 0.8 µM,1.13
same,relative viability,GSK126 + Lapatinib; first compound 2.53 µM,0.796
same,relative viability,GSK126 + Lapatinib; first compound 8 µM,0.959
same,relative viability,GSK126 + Pemetrexed; first compound 0.08 µM,0.841
same,relative viability,GSK126 + Pemetrexed; first compound 0.253 µM,0.749
same,relative viability,GSK126 + Pemetrexed; first compound 0.8 µM,0.756
same,relative viability,GSK126 + Pemetrexed; first compound 2.53 µM,0.744
same,relative viability,GSK126 + Pemetrexed; first compound 8 µM,0.831

# Source: the supplement of paper PMC10307832
